Tested on: INS-1 cells
Assay: GSIS assay: release of PPI-mCherry reporter into conditioned media (relative fluorescence)
Format: cell-based, rat
Settings: INS-1 cells transduced with PPI-mCherry, 2 h
Description: (HG—high glucose (25 mM): LG—low glucose (5.6 mM): Ex—10 nM: NF—nifedipine 10 μM, calcium channel blocker/inhibitor) (Y-axis=normalized fluorescent units—FLU).
The reporter system was tested in insulin secretion assays.
GSIS: INS-1 cells were transduced with PPI-mCherry and allowed to recover. […] Conditioned media was removed and spotted onto a membrane and relative fluorescence determined using an Odyssey CLx imager (Licor Corp).

With “PPI-mCherry: Genetically encoded preproinsulin-mCherry fluorescent protein reporter (SEQ ID NO: 1), delivered by pLenti vector” the “glucose stimulated release of the PPI-mCherry reporter (high vs low glucose)” value was 1.7 fold.

— patent publication US20130195815A1, “METHOD FOR LABELING INSULIN-SECRETING PANCREATIC BETA CELLS AND OBTAINING PURIFIED INSULIN-SECRETING PANCREATIC B-CELLS AND AN INSULIN REPORTED” (NORTH CAROLINA CENTRAL UNIVERSITY, priority 2011, published 2013)
